Data: patent publication US9289364B2, “Tyrosinase inhibitors” (Avon Products, Inc., priority 2013, dated 2016)

Key:
B16 mouse melanoma cells = assay: Inhibition of melanin production in B16 melanoma cell assay; assay type: cell-based; conditions: 4 days, alpha MSH 2 nanogram/ml, normalized to cell viability (MTT)
Experimental: The effects of various test compounds on melanin levels were determined by performing assays using B16 melanoma cells. These cells are known to constitutively produce melanin and are a commonly utilized and accepted model system for monitoring the inhibition of melanin synthesis. The B16 mouse melanoma cells were seeded (ATCC, cat. #: CRL-6475) into 96-well tissue culture-treated plates (BD Falcon) and treated with test actives or controls in phenol red free DMEM (Mediatech; cat. #: 17-205-CV) with 2 nanogram/ml of alpha MSH (Fluka; cat #:63605). The cells were examined for their ability to modulate pigment formation. […] Tests were performed in 6 replicates each. Following the treatment period (4 days), the level of pigment produced or melanin synthesized was quantified by reading the absorbance at 540 nm using a standard microplate reader (Tecan Group Ltd.).
After quantifying the amount of melanin, cell viability was determined using the MTT conversion method. The MTT conversion method measures the reduction of the MTT dye from a yellow colored, water-soluble, tetrazolium salt to a bluish-purple colored insoluble formazan precipitate by NAD(P)H-dependent microsomal dehydrogenase enzymes, which only function in viable cells. The intensity of the blue color is indicative of cell viability. After quantifying the amount of melanin pigment produced, the cells were exposed to MTT dye solution (1 mg/ml) for two to three hours. Formazan material was solubilized with reagent alcohol (95% ethanol: 5% isopropanol) and shaken on an orbital shaker for 15-30 minutes. MTT dye uptake and conversion by viable cells were determined by measuring the extracted formazan at 570 nm using a microplate reader. Total pigmentation was calculated, normalized to cell viability values and expressed as the average percent change in melanin activity relative to control of the six experiments performed.

Mushroom tyrosinase = Mushroom tyrosinase assay (conversion of L-Tyrosine to DOPAchrome); assay type: biochemical; conditions: 25° C., 30 min, absorbance 492 nm
Experimental: Mushroom tyrosinase and L-Tyrosine were obtained from Sigma-Aldrich, Inc. (St. Louis, Mo.). The enzyme activity was measured in buffer containing 100 mM phosphate buffer pH 6.8, 5% absolute ethanol, 2 micrograms/milliliter mushroom tyrosinase, and 0.2 mg/ml L-Tyrosine. The reaction (conversion of L-Tyrosine to DOPAchrome) was conducted in triplicates at 25° C. for 30 min, and absorbance was then measured at 492 nm. Kojic Acid was used as a positive control inhibitor in these assays. Percent change in tyrosinase activity relative to vehicle control was calculated.

Tyrosinase Inhibition (percent change in tyrosinase activity compared to DMSO vehicle control) (Mushroom tyrosinase; concentration 0.0010%) [%]	Tyrosinase Inhibition (percent change in tyrosinase activity compared to DMSO vehicle control) (Mushroom tyrosinase; concentration 0.0100%) [%]	SMILES	B16 Assay Pigmentation Decrease (percent change in melanin compared to DMSO vehicle control) (B16 mouse melanoma cells; concentration 0.0001%) [%]	B16 Assay Pigmentation Decrease (percent change in melanin compared to DMSO vehicle control) (B16 mouse melanoma cells; concentration 0.0010%) [%]
−46		Cc1cc(C)cc(Nc2nc(-c3ccc(O)cc3O)cs2)c1 [AV4662]	−57	
−75	−59	CN1CCN(c2nc(-c3ccc(O)cc3O)cs2)CC1 [AV5370]	−10	−77
